Article PMC9569529, “Safe and Efficient Sigma1 Ligand: A Potential Drug Candidate for Multiple Sclerosis” (International Journal of Molecular Sciences, 2022)
≈ marks a conversion by molar mass, not a printed value. Read-outs that look alike come from different tables or passages of the source.

Experiments:
[1] = Microsomal stability in human liver microsomes; format: in vitro ADME; details: hLM; for half-life at 10 µM / microsomal CLint at 10 µM: human, liver microsomes
Experimental: Metabolic stability analysis (mouse and human liver microsomes) was performed by Eurofins Cerep (Poitiers, France) at 10 µM as described in [55]. Results were obtained at 15, 30, 45 and 60 min. Results were expressed as percent of the parent compound remaining, and calculated by comparing the peak area of the compound at the time point relative to that at time 0. The half-life (t1/2) and the apparent intrinsic clearance (CLint) were evaluated.
Metabolite identification was performed by HPLC-High Resolution mass spectrometry (MS). Chromatographic separation was performed on an Accela UPLC system (Thermo Fisher Scientific Inc. Waltham, MA, USA) equipped with an ACE 3 C18-AR column (100 × 2.1 mm, particle size 3 μm; AIT, Cormeilles-en-Parisis, France) preceded by a guard column (same stationary phase). The elution was performed with a gradient mode using water (solvent A) and ACN (solvent B), all acidified with 0.1% formic acid. The linear gradient elution program was as follows: 10% of B for 2 min; linear increase from 10 to 90% of solvent B for 20 min; 1 min at 90% of B; and 2 min of re-equilibration with 10% of B for a total run of 25 min. The LC flow rate was 400 µL/min and the injection volume was 10 μL. The column oven temperature was 30 °C and the sample tray temperature 4 °C. Eluted compounds were detected in positive mode by a full mass scan (m/z 200 to 500) using a Orbitrap Mass Spectrometer Exactive (Thermo Fisher Scientific Inc. Waltham, MA, USA) equipped with a heated electrospray ionization source (HESI-II). Instrument parameters were as follows: sheath gas 35, auxiliary gas 10 (both arbitrary units), spray voltage 2.4 kV, capillary temperature 275 °C, capillary voltage 67.5 V, tube lens voltage 120 V, skimmer voltage 24 V and source temperature 350 °C. Mass spectra were recorded at an ultra-high resolution (100,000). Instrument control, data acquisition and processing were performed using the associated Thermo Scientific software package (Xcalibur v.2.2 and Exactive v1.1).

[2] = Solubility, shake-flask method; format: physicochemical; details: thermodynamic from solid
Experimental: Standardized in vitro ADME experiments were performed by Eurofins Cerep (Poitiers, France). Solubility assays were performed in PBS at pH 7.4, but also in simulated gastric fluid (SGF) and intestinal fluid (SIF), through the classical shake-flask method according to Lipinski et al. using HPLC-UV/VIS technology. Results were expressed in µM.

[3] = Bidirectional permeability in Caco-2 (pH 6.5/7.4); format: in vitro ADME, human; details: human; for Papp A→B at 10 µM: Caco-2, pH 6.5, Caco-2, 10 µM, read-out: Permeability A/B pH6.5/7.4; for efflux ratio at 10 µM: Caco-2, pH 6.5, Papp(B-A)/Papp(A-B), pH 6.5/7.4, read-out: e-ratio (efflux ratio); for Papp B→A at 10 µM: pH 6.5, Caco-2, 10 µM, read-out: Permeability B/A pH6.5/7.4
Experimental: (§1) The compound was classically evaluated at 10 µM for all the ADME analyses. Bidirectional permeability (apical A to basolateral B pH 6.5/7.4 and basolateral B to apical A pH 7.4/6.5) was assessed in the epithelial colorectal adenocarcinoma cell line (Caco-2 cell line). Results were expressed as × 10^−6cm/s (Papp) and as % recovery. Efflux ratio, i.e., Papp(B-A)/Papp(A-B), was calculated. Plasma protein binding was analyzed by HPLC-MS/MS after 4-h incubation at 37 °C, as described by Banker et al.. Concentration was evaluated by LC/MS-MS. CYP inhibition was performed in human liver microsomes as described in [61]. Analysis of the respective metabolites. was performed by HPLC-MS/MS. Transporter inhibition analysis was also performed in overexpressing cell lines. Respective metabolites for each specific transporter substrate were analyzed by fluorometry or scintillation counting and % inhibition of control values were calculated. P-glycoprotein transporter substrate assessment was performed by bidirectional permeability analysis (apical A to basolateral B pH 7.4/7.4 and basolateral B to apical A pH 7.4/7.4) in the Caco-2 cell line with and without verapamil, as described in [59]. Results were expressed as ×10^−6 cm/s (Papp) and as % recovery. The efflux ratio, i.e., Papp(B-A)/Papp(A-B), was calculated. CYP450 induction characterization was performed on human hepatocytes. The mRNA levels of 7 different CYPs were analyzed by qPCR, as described in [72]. The compound was evaluated at 1, 10 and 100 µM. Fold-induction values were determined and compared to cut-off values, as defined for each CYP isozyme in each hepatocyte lot.

Plasma protein binding = format: in vitro ADME; details: 4-h incubation at 37 °C, read-out: PPB (converted)
Experimental: as §1, with “P-glycoprotein transporter substrate assessment was performed by bidirectional permeability analysis (apical A to basolateral B pH 7.4/7.4 and basolateral B to apical A pH 7.4/7.4) in the Caco-2 cell line with and without verapamil, as described in [59].” left out, “CYP450 induction characterization was performed on human hepatocytes.” left out

CYP1A = molecular target: T1, CYP1A (Homo sapiens, UniProt P05177); test: CYP inhibition in human liver microsomes; format: in vitro ADME; details: read-out: CYPs inhibition CYP1A
T1 construct: tissue Eurofins Cerep (CRO); host or cells: human liver microsomes
Experimental: as §1

CYP2B6 = molecular target: T2, CYP2B6 (Homo sapiens, UniProt P20813); test: CYP inhibition in human liver microsomes; format: in vitro ADME; details: read-out: CYPs inhibition CYP2B6
T2 construct: tissue Eurofins Cerep (CRO); host or cells: human liver microsomes
Experimental: as §1

CYP2C19 = molecular target: T3, CYP2C19 (Homo sapiens, UniProt P33261); test: CYP inhibition in human liver microsomes; format: in vitro ADME; details: read-out: CYPs inhibition CYP2C19
T3 construct: tissue Eurofins Cerep (CRO); host or cells: human liver microsomes
Experimental: as §1

CYP2C8 = molecular target: T4, CYP2C8 (Homo sapiens, UniProt P10632); test: CYP inhibition in human liver microsomes; format: in vitro ADME; details: read-out: CYPs inhibition CYP2C8
T4 construct: tissue Eurofins Cerep (CRO); host or cells: human liver microsomes
Experimental: as §1

CYP2D6 = molecular target: T5, CYP2D6 (Homo sapiens, UniProt P10635); test: CYP inhibition in human liver microsomes; format: in vitro ADME; details: read-out: CYPs inhibition CYP2D6
T5 construct: tissue Eurofins Cerep (CRO); host or cells: human liver microsomes
Experimental: as §1

S1R–BiP complex = test: S1R-BiP dissociation assay in CHO cells (co-IP, ELISA); format: cell-based
Experimental: The activity of compound 7i was evaluated in regard to its ability to dissociate the S1R–BiP complex. The S1R–BiP dissociation assay was performed by Amylgen (Montferrier-sur-Lez, France) as described in [13, 79]. Briefly, CHO cells were treated with test compounds for 30 min (37 °C). Crosslinking was performed with dithiobis succinimidyl propionate (DSP; Thermoscientific, Waltham, MA, USA). Lysis was performed after incubation for 15 min on ice. After centrifugation, supernatants were incubated overnight (4 °C) with the S1R antibody (Abcam, Cambridge, UK). Lysates were incubated with Sepharose Protein-A (Invitrogen). After the first centrifugation, the pellet was resuspended in radioimmunoprecipitation assay (RIPA) buffer. After a second centrifugation, the pellet was resuspended in 2× sample buffer/bMCE buffer. After the third centrifugation, supernatants were analyzed for BiP immunoreactivity (SEC343Mu ELISA, USCNK Life Sciences, Wuhan, China).

[4] = PBS pH 7.4, pH 7.4, aqueous buffer, read-out: Solubility PBS pH7.4
[5] = simulated gastric fluid (SGF), simulated gastric fluid, read-out: Solubility SGF
[6] = simulated intestinal fluid (SIF), fassgf or other biorelevant, read-out: Solubility SIF

T4 sequence (P10632 whole entry): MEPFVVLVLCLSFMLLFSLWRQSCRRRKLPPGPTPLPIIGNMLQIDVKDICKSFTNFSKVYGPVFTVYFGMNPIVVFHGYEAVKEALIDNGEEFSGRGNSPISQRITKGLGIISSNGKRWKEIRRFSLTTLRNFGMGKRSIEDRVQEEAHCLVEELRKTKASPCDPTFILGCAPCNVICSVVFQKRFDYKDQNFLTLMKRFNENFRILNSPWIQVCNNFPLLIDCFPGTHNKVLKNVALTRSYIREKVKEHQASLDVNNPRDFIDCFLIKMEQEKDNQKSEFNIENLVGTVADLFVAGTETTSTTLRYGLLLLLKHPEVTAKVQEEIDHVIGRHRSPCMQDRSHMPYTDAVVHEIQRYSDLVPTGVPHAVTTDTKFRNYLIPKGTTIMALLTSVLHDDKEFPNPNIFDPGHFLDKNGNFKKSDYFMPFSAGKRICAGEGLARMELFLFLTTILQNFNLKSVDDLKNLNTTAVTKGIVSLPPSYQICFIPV
T3 sequence (P33261 whole entry): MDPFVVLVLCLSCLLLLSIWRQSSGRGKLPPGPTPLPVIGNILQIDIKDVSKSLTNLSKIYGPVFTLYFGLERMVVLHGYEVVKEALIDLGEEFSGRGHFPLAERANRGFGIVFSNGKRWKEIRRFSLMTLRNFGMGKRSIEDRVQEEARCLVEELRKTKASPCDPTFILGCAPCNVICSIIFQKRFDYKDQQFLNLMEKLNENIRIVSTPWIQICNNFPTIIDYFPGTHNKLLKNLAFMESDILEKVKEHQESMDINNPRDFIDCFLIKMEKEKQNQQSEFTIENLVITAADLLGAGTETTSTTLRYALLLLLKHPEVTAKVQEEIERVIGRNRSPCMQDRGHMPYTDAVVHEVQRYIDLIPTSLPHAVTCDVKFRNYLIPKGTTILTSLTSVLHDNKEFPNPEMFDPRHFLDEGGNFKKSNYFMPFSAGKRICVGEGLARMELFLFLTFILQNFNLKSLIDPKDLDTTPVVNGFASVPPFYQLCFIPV
T5 sequence (P10635 whole entry): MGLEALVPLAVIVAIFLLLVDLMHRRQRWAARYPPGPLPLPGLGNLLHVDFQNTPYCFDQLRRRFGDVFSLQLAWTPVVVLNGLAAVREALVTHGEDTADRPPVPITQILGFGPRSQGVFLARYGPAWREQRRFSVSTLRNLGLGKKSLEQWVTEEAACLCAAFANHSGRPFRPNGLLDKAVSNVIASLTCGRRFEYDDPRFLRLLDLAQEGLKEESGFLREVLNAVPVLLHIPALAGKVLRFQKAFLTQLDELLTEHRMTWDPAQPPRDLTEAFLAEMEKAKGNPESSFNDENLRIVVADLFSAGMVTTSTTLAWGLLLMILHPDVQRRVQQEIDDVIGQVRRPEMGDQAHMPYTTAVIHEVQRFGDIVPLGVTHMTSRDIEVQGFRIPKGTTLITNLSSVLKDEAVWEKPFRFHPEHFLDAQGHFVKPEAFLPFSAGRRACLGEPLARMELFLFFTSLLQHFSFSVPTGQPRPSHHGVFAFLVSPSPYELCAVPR
T2 sequence (P20813 whole entry): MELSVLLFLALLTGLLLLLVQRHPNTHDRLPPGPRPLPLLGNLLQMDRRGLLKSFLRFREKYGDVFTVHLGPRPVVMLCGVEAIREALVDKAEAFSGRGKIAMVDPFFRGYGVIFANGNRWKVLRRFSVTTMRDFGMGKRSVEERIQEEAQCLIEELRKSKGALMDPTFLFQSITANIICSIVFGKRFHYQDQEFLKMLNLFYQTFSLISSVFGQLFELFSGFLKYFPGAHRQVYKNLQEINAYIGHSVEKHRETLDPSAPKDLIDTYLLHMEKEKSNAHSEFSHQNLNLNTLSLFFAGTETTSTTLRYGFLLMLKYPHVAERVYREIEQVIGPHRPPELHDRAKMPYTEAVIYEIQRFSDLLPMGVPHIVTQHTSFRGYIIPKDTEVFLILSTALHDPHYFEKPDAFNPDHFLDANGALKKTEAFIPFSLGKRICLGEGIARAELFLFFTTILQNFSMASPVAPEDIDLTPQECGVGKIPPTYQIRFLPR
T1 sequence (P05177 2-516 limits assumed): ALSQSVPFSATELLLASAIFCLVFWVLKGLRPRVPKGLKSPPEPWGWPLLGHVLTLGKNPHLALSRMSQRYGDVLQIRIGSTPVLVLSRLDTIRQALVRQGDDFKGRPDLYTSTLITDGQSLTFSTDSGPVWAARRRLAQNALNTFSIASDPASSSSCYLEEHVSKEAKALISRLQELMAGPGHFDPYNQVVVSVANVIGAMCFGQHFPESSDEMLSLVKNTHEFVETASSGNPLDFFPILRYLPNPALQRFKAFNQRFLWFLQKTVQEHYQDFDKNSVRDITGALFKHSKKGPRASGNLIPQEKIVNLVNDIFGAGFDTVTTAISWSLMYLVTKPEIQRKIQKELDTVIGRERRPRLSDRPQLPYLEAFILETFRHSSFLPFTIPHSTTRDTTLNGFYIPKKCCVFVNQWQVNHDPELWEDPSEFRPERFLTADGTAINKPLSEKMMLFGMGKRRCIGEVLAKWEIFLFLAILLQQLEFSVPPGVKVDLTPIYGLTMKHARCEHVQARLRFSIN

| Structure (SMILES) | t1/2 ([1]; 10 µM) [h] | Compound Remaining (1 h, %) ([1]; 10 µM) [%] | half-life at 10 µM [1] [h] | microsomal CLint at 10 µM [1] [µL/min/mg] | solubility [2, 4] [µM] | solubility [2, 5] [µM] | solubility [2, 6] [µM] | Papp A→B at 10 µM [3] [×10⁻⁶ cm/s] | efflux ratio at 10 µM [3] | Papp B→A at 10 µM [3] [×10⁻⁶ cm/s] | fraction unbound at 4 h, 10 µM (Plasma protein binding) | inhibition at 10 µM (CYP1A) [%] | inhibition at 10 µM (CYP2B6) [%] | inhibition at 10 µM (CYP2C19) [%] | inhibition at 10 µM (CYP2C8) [%] | inhibition at 10 µM (CYP2D6) [%] | effect on S1R–BiP association (S1R–BiP complex; 1 and 10 µM, 30-min incubation) | S1R functional activity (S1R–BiP complex; S1R–BiP dissociation blocked by NE-100) | effect on S1R–BiP dissociation in presence of NE-100 (S1R–BiP complex; co-treatment with NE-100 (10 µM)) | S1R antagonist capacity (co-treatment with PRE-084) (S1R–BiP complex; co-treatment with PRE-084 (10 µM)) |
| --- | --- | --- | --- | --- | --- | --- | --- | --- | --- | --- | --- | --- | --- | --- | --- | --- | --- | --- | --- | --- |
| O=C(NCCCNCc1ccccc1)c1ccc(Cl)cc1 [compound 7i-deMe] | 10.0 | 83 | > 9 | < 115 | 187 (≈ 56.6 µg/mL) | 197 (≈ 59.7 µg/mL) | 196 (≈ 59.3 µg/mL) | 31.1 | 1.7 | 51.5 | 0.19 | 9.4 | 15.9 | 18.4 | -7.2 | 91.6 | – | – | – | – |
| CN(CCCNC(=O)c1ccc(Cl)cc1)Cc1ccccc1 [compound 7i] | – | 66 | > 1 | < 115 | 185 (≈ 58.6 µg/mL) | 193 (≈ 61.1 µg/mL) | 188 (≈ 59.6 µg/mL) | ≤ 20 | ~2 | 66.1 | > 0.05 | 2.1 | -4.3 | 36.5 | -9.2 | 95.1 | significantly causes a dose-dependent dissociation | agonist capacity | blocked | absence of antagonist capacity |
